From BindingDB's records for doi:10.7270/Q2N58JV3 (Burnham Center For Chemical Genomics, 2010)

Target: Polyadenylate-binding protein 1 (Homo sapiens, UniProt P11940)
Experiment: PABP inhibition in translation initiation, SAR follow-up (AID 435018)

Chain of Polyadenylate-binding protein 1 (P11940 whole entry): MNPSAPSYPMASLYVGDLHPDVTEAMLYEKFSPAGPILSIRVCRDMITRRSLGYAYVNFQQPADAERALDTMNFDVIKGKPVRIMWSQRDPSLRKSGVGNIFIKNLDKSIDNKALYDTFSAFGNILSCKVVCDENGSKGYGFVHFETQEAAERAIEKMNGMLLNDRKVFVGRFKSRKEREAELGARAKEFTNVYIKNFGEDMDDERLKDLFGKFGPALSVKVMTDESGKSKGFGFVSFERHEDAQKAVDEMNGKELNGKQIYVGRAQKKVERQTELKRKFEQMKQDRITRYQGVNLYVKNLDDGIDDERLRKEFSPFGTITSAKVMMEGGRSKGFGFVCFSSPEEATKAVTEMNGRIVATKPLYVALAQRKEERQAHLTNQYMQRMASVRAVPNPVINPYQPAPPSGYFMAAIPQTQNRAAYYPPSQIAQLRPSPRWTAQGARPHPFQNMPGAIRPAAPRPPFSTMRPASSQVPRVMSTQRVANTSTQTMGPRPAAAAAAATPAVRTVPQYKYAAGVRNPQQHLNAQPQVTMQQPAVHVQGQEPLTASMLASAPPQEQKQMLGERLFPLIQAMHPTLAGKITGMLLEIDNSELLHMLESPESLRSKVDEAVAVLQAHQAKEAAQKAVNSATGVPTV

`COc1cc([CH+][N-]NC(=O)c2ccc(O)cc2)ccc1OCC(=O)Nc1cccc([N+](=O)[O-])c1` showed an IC50 greater than 100 µM.
